Laboratory results published in patent publication US20230256110A1, “COMBINATION OF ANTIBODY-DRUG CONJUGATE AND ATM INHIBITOR” (AstraZeneca UK Limited, priority 2020, published 2023).
Entries after “also recorded” stand apart in the source; their conditions may differ. Structures can show the parent of a compound that is named as a salt.

How the values were obtained:
[1] = test system: NCI-N87 tumours implanted subcutaneously; test: NCI-N87 xenograft antitumor test in vivo; parameters: species or system Female Nude mice; details: AZD1390 10 mg/kg PO QD × 28; day 40 post treatment
ATM signaling = test: Inhibition of ATM signaling, antibody blots of whole-cell extracts; format: cell-based
Experimental: Gastric cancer NCI-N87 and breast carcinoma KPL4 cell lines were cultured in RPMI 1640 supplemented with 10% FCS in a humidified incubator at 37° C. with 5% CO2. Cells were plated in 6-well plates at optimal density to allow linear proliferation for the duration of the assay. […] 7 h, 24 h or 48 h after dosing, whole-cell extracts were obtained by lysis in 50 mM Tris-HCl pH 7.5, 2% SDS containing protease and phosphatase inhibitors. Lysates were boiled for 5 minutes at 95° C. Protein concentration was measured using a Nanodrop at […] and 50 μg of lysate were loaded in 4-12% Bis Tris gels. Proteins were transferred using iblot2. Primary antibodies (see Table 7) were incubated overnight at 4° C. in 3% milk TBS-tween 0.05% and HRP-conjugated secondary antibodies for 1 h at room temperature. Blots were imaged using a G-box.

MDA-MB-468 cell line [2] = test: Growth inhibition by total cell (nuclear) count, 96-well imaging; format: cell-based; details: Homo sapiens; monotherapy; MDA-MB-468, breast, HER2 Low; 4 to 8 days
Experimental: (§1) Cells grown in their respective conditions were plated in 96-well plates at optimal density to allow linear proliferation for the duration of the assay (4 to 8 days; duration of treatment is dependent on the growth rate of each cell line). Immediately after plating, the cells were dosed with the indicated compounds for a total volume of 200 μL/well and placed in the incubator. Combinations were conducted as a 6×8 concentration response matrix for each combination. At the endpoint, the cells were fixed in 2% PFA for 20 minutes at room temperature. In order to obtain the number of cells at the start of treatment, one additional plate was used for each experiment and fixed after cells attached. The cells were then permeabilised in 0.5% Triton-X100 in PBS for 10 minutes. After a PBS wash, the cells were blocked in 5% FBS in PBS 1 h at RT and incubated with primary antibodies in 5% FBS+0.05% triton overnight at 4° C. After 3 washes in PBS cells were incubated with secondary antibodies in 5% FBS+0.05% triton with Hoechst33258 for 1 h at room temperature. After 3 washes in PBS, the cells were scanned with a Cellinsight instrument with a 10×objective and 9 fields/well. Images were analysed using Columbus for cell count based on nuclear Hoechst staining and nuclear intensity of other biomarkers investigated. The total cell count/well was used to calculate the relative growth in each well compared to solvent control. […] The mean/well of the sum of the nuclear intensity of the IF biomarkers was also expressed relative to solvent control.

NCI-N87 cell line [3] = test: as above; format: cell-based; details: Homo sapiens; monotherapy; NCI-N87, gastric, HER2 High; 4 to 8 days
Experimental: as §1

SK-OV-3 cell line = test: as above; format: cell-based; details: Homo sapiens; monotherapy; SK-OV-3, ovarian, HER2 Moderate; 4 to 8 days
Experimental: as §1

KPL4 cell line [4] = test: as above; format: cell-based; details: monotherapy; KPL4, breast, HER2 High; 4 to 8 days
Experimental: as §1

JIMT-1 cell line = test: as above; format: cell-based; details: Homo sapiens; monotherapy; JIMT-1, breast, HER2 Expressed; 4 to 8 days
Experimental: as §1

T47D cell line = test: High-throughput combination screen, 7-day cell titer-glo cell viability assay; format: cell-based; details: within the selected concentration range
Excerpt: (§2) In addition, trastuzumab and exatecan (DNA topoisomerase I inhibitor) were also screened in parallel with AZD1390.
(§3) • Loewe Dose Additivity predicts the expected response if the two compounds act on the same molecular target by means of the same mechanism. It calculates additivity based on the assumption of zero interaction between the compounds and it is independent from the nature of the dose-response relationship. • HSA (Highest Single Agent) [Berenbaum 1989] quantifies the higher of the two single compound effects at their corresponding concentrations. The combined effect is compared with the effect of each single agent at the concentration used in the combination. Excess over the highest single agent effect indicates cooperativity. […] The predicted values are determined by the chosen model. Differences between the predicted and observed values may indicate synergy or antagonism, and are shown in the Excess Matrix. Excess Matrix values are summarized by the combination scores Excess Volume and Synergy Score.

MDA-MB-468 cell line [5] = test: as above; format: cell-based; details: within the selected concentration range
Excerpt: as §2, §3

NCI-N87 cell line [6] = test: as above; format: cell-based; details: within the selected concentration range
Excerpt: as §2, §3

KPL4 cell line [7] = test: as above; format: cell-based; details: within the selected concentration range
Excerpt: as §2, §3

DU145 cell line = test: Growth inhibition by total cell (nuclear) count, 96-well imaging; format: cell-based; details: Homo sapiens, DU-145; monotherapy; DU145, prostate, HER2 Low; 4 to 8 days
Experimental: as §1

[8] = test system: DU145-SLFN11 KO (CRISPR-Cas9 gene knockout of SLFN11); test: as above; format: cell-based; details: monotherapy, prostate, HER2 Low, 4 to 8 days
Experimental: as §1

KAP1 pSer824, γH2AX = test: Immunofluorescence biomarkers of ATM activation and DNA damage in KPL4 cells; format: cell-based; details: high-HER2 KPL4
Experimental: Cells grown in their respective conditions were plated in 96-well plates at optimal density to allow linear proliferation for the duration of the assay (4 to 8 days; duration of treatment is dependent on the growth rate of each cell line). Immediately after plating, the cells were dosed with the indicated compounds for a total volume of 200 μL/well and placed in the incubator. Combinations were conducted as a 6×8 concentration response matrix for each combination. At the endpoint, the cells were fixed in 2% PFA for 20 minutes at room temperature. In order to obtain the number of cells at the start of treatment, one additional plate was used for each experiment and fixed after cells attached. The cells were then permeabilised in 0.5% Triton-X100 in PBS for 10 minutes. After a PBS wash, the cells were blocked in 5% FBS in PBS 1 h at RT and incubated with primary antibodies in 5% FBS+0.05% triton overnight at 4° C. After 3 washes in PBS cells were incubated with secondary antibodies in 5% FBS+0.05% triton with Hoechst33258 for 1 h at room temperature. After 3 washes in PBS, the cells were scanned with a Cellinsight instrument with a 10×objective and 9 fields/well. Images were analysed using Columbus for cell count based on nuclear Hoechst staining and nuclear intensity of other biomarkers investigated. […]

[9] = NCI-N87 and KPL4, AZD1390 at 100 nM combined with DS-8201 or exatecan mesylate

| SMILES | Best response % TGI/regression [1] [%] | DNA damage (pRPA, gH2AX) (ATM signaling; [9]) | activation of pATM, pChk2, and pKAP1 (ATM signaling; [9]) | cell death (cCasp3) (ATM signaling; [9]) | GI50 (MDA-MB-468 cell line [2]) [nM] | GI50 (NCI-N87 cell line [3]) [nM] | GI50 (SK-OV-3 cell line) [nM] | GI50 (KPL4 cell line [4]) [nM] | GI50 (JIMT-1 cell line) [nM] | Single agent activity (cell viability) (T47D cell line) | Single agent activity (cell viability) (MDA-MB-468 cell line [5]) | Single agent activity (cell viability) (NCI-N87 cell line [6]) | Single agent activity (cell viability) (KPL4 cell line [7]) | activation of the ATM pathway (pATM-S1981, pChk2-T68, pKap1-S824) (ATM signaling; Her2-high NCI-N87 and KPL4, DS-8201 at 30 μg/mL or exatecan mesylate alone) | GI50 (DU145 cell line) [nM] | GI50 [8] [nM] | biomarkers of ATM (KAP1 pSer824) activation and DNA strand breaks (yH2AX) (KAP1 pSer824, γH2AX) |
| --- | --- | --- | --- | --- | --- | --- | --- | --- | --- | --- | --- | --- | --- | --- | --- | --- | --- |
| CC(C)n1c(=O)n(C)c2cnc3cc(F)c(-c4ccc(OCCCN5CCCCC5)nc4)cc3c21 [AZD1390, 7-fluoro-1-isopropyl-3-methyl-8-[6-[3-(1-piperidyl)propoxy]-3-pyridyl]imidazo[4,5-c]quinolin-2-one] | 37 | exacerbating the DNA damage | inhibited the activation of pATM, pChk2, and pKAP1; also recorded: inhibits DS-8201-induced ATM signaling | increased cell death | > 100 | > 100 | > 100 | > 100 | > 100 | not active | not active | not active | not active |  |  |  |  |
| CC[C@@]1(O)C(=O)OCc2c1cc1n(c2=O)Cc2c-1nc1cc(F)c(C)c3c1c2[C@@H](N)CC3 [Exatecan mesylate, (1S,9S)-1-amino-9-ethyl-5-fluoro-1,2,3,9,12,15-hexahydro-9-hydroxy-4-methyl-10H,13H-benzo[de]pyrano[3′,4′:6,7]indolizino[1,2-b]quinolin-10,13-dione, reference compound] |  |  |  |  | 0.162 | 0.503 | 0.914 | 1.18 | 0.745 |  |  |  |  | induced activation of the ATM pathway | 0.564 | 0.45 | induced in a concentration dependent manner |
